In US11725027B2, “Hypersensitive response elicitor-derived peptides and use thereof” (priority 2016, dated 2023):
Marks after values point to notes of the source that are not given here.

How the values were obtained:
Type in all cases: in vivo
[1] = test system: Nicotiana tabacum cultivar xanthi plants; experiment: Hypersensitive Response (HR) induction in tobacco leaves; set-up: key to HR: Plants are considered HR-positive (“HR+”) if they exhibit wide-spread macroscopic cell death visible to the naked eye, accompanied by wilting and browning of the affected tissue within 48 hours; Plants are considered HR-negative (“HR−”) if they exhibit no discernible wilting or tissue death observable by naked eye; conditions: for HR: tobacco leaf infused with 500, 250, 125, 62.5, 31.25 μg/ml peptide solutions, scored over 48 hours; for elicitation of HR, effect of Met to Ala mutations: tobacco
Text: A property of a peptide to elicit a hypersensitive response, or not, upon infiltration or application of the peptide to plant tissues can be measured by applying the peptide in dry powder form or in solution form to a plant, particularly though not exclusively a plant leaf.
The minimal eliciting sequence derived from was developed based on the sequence of the hrex gene from Xanthomonas campestris pv. pelargonii. A number of truncated and mutated sequences were synthesized and tested for Hypersensitive Response induction (results in Table 4). HR in tobacco was tested as described in Wei, Science 257:85-88 (1992), which is hereby incorporated by reference in its entirety. Briefly, peptides were dissolved at a concentration of 500 μg/ml in aqueous solution. Four serial dilutions were performed with an equal volume of water, yielding peptide samples at 500, 250, 125, 62.5, 31.25 μg/ml peptide solutions. Nicotiana tabacum cultivar xanthi plants were used at 5-7 weeks old (preflowering). Leaves were lightly punctured with a toothpick in a middle leaf panel. Peptide solutions were then infused via needle-less syringe into the wound, filling the panel. Each peptide sample was infused into a leaf of 2 different plants. The leaves were observed and scored over the next 48 hours for withering and browning, lesions typical of programmed cell death. These studies had […] main goals: (1) determine the minimal sequence sufficient for HR elicitation (2) increase the solution stability of the peptides; (3) make disruptive mutations to verify the residues which are most important for HR elicitation; (4) make conservative mutations to identify the degree of specificity for particular amino acids.

[2] = test system: tobacco mosaic virus (TMV); experiment: Induction of resistance to tobacco mosaic virus in tobacco; conditions: % decline in TMV lesions vs UTC, spray 20 ug/ml; for Effectiveness Covered (%): covered leaf (systemic response); for Effectiveness Uncovered (%): uncovered leaf (local response)
Method: Peptides were tested for the induction of resistance to tobacco mosaic virus (TMV) in tobacco. Briefly, three tobacco plants at 6-8 weeks old were selected per group (samples and controls). The bottom-most leaf of the plant was covered and the plant was sprayed with a solution of water (untreated control—UTC), peptide, or Proact (positive control). The spray was applied until the leaves were fully wetted, indicated by liquid dripping from the leaves. The plants were then allowed to dry and the leaf covering was removed.
Three days post-treatment, the previously-covered leaf and a leaf on the opposite side of the plant were then lightly dusted with diatomaceous earth and 20 ul of a 1.7 ug/ml solution of purified tobacco mosaic virus was applied. The TMV solution was then spread across the leaf surface by lightly rubbing solution and the diatomaceous earth across the surface of the leaves. Two minutes after inoculation, the diatomaceous earth was rinsed off the leaves with water. 3 days after TMV inoculation, the leaves were scored based on the number of TMV lesions observed. The leaf was also scored for signs of the hypersensitive response, including yellowing and wilting of the affected leaves.
Effectiveness described in Table 6 refers to the % decline in TMV lesions on treated vs UTC plants. A reduction of TMV on covered leaves indicates a systemic immune response in the plant while reduction on uncovered leaves indicates a local response. Asterisks indicate that the P-value derived from a T-test was <0.05.

soy = experiment: Drought resistance in soy (greenhouse, spray); conditions: soy under cyclic drought
Method: The effectiveness of peptide treatment in reducing drought stress was assessed in soy. 3.5 inch pots were filled with Sunshine #1 soil (SunGro Horticulture), fertilized with a 20-10-20 mixture. The soil was soaked and drained overnight. Seeds (soy, manually inspected to ensure uniform seed size) were planted at a depth of half inch for germination. Plants were grown in a greenhouse under 16 hour light days at >70° F. and 8 hour dark nights at >65° F. Prior to drought conditions, the plants were well-watered.
When the plants reached the growth stage when first trifoliate expanded, plants were culled to achieve a uniform height (abnormally large and small plants were removed). Plants were then randomly assigned to control (spray without peptide) or treatment (spray with peptide) groups and heights were measured. Peptide was made up in a solution of 0.2 ug/ml or 2 ug/ml in distilled water+0.04% Tween-20, and applied as a fine mist from a spray bottle until the solution drips from the leaves. After the peptide solutions were dried, the plants were again randomized in a randomized complete block design. Cyclic drought stress was initiated after the peptide treatment. Plants were subjected to at least three drought cycles of drought stress (3-5 days of withholding water and 1 day irrigated with saturating amount of water) before harvesting.
The drought test phase ended after 2-3 weeks. At that time, the plant height was again measured and the growth rate was calculated as the difference between this and the previously-recorded height. The above-ground part portions of the plants were harvested and weighed to obtain fresh weight. The above-ground portion was also dried in an oven at 70° C. for 72 hours to obtain dry weight. All calculations were compared with matched untreated control plants.

Sequence | HR [1] | other results
SAGSEQQEDELLAFIAAALQQ [Peptide P5-51] | - | 
SAGSEQQLDLLLAFIEAALQQ [Peptide P5-67] | - | 
SAGSEQQLDLLLMFIMMMEQQ [Peptide P5-45] | - | 
SEEQEELLLAFIAAALQQEE [Peptide P5-56] | - | 
SAGSEQQLDQLLLAFIAAALQQ [Peptide P5-55] | - | 
SEEEEELDLLLAFIAAALS [Peptide P5-16] | - | 
SAGSEQQLDLLLAFIAEALQQ [Peptide P5-66] | Weak+ | 
LDLLLAFIEEELEEEE [Peptide P5-10] | - | 
SEEEEELDLLLAFIAAALA [Peptide P5-17] | - | 
SEEQLEELLAFIAAALQQEE [Peptide P5-57] | + | 
SAGSEQQLDLLLEFIALQQ [Peptide P5-63] | - | 
SAGSEQQLDLLLAEIAAALQQ [Peptide P5-69] | - | 
SAGSEQQLDLLLAEIALQQ [Peptide P5-64] | - | 
SAGSEQQEDELLMFIMMMLQQ [Peptide P5-52] | - | 
SEEEEELDLLLAFIAAALQQ [Peptide P5-8] | Weak+ | Effectiveness Covered (%) [2]: 99* %; Effectiveness Uncovered (%) [2]: 99* %
SEEEEELDLLLAFIAAALE [Peptide P5-18] | - | 
NFGTPDSTVQNPQDASKPNQLDLLLAFIAAALQQ [Peptide P5-78] | Weak+ | 
AEQGSSQLDLLLMFIMMMLQQ [Peptide P5-74] | + | 
SEEEQLDQLLLMFIMMMLEE [Peptide P5-32] | + | 
SEEEEELDLLLAFIAAALQ [Peptide P5-15] | - | 
SAGSEQQLDLELMFIMMMLQQ [Peptide P5-37] | - | 
SEEELDLLLAFIAAALDD [Peptide P5-13] | - | 
SAGSEQQLDLLLMFIEMMLQQ [Peptide P5-42] | Weak+ | 
ITPDGQGGGQIGDNPQLDLLLAFIAAALQQ [Peptide P5-80] | Weak+ | 

Sequence | HR [1] | other results
SAGSEQQLDLLLEFIMMMLQQ [Peptide P5-39] | Strong+ | 
SEEELDLLLAFIAAALEE [Peptide P5-11] | - | 
SEEQLDLLLMFIMMMLQQEE [Peptide P5-47] | + | Effectiveness Covered (%) [2]: 78* %; Effectiveness Uncovered (%) [2]: 87* %
SEEELDLLLMFIMMMLEE [Peptide P5-29] | + | 
ITPDGQGGGQIGDNPQLDLLLMFIMMMLQQ [Peptide P5-79] | Strong+ | 
SAGSEQQLDLLLAFIEALQQ [Peptide P5-65] | - | 
SEEELELLLAFIAAALEEEE [Peptide P5-22] | + | Effectiveness Covered (%) [2]: 62%; Effectiveness Uncovered (%) [2]: 82%
SEEEEELDLLLAFIAAALGG [Peptide P5-14] | Weak+ | 
SELELLLEFIEEELEE [Peptide P5-20] | - | 
SEEEEELDQLLLAFIAAALQQ [Peptide P5-23] | Weak+ | 
SEEQLDLLLAFIAAALQEE [Peptide P5-26] | + | 
SELELLLAFIAAALEEEEE [Peptide P5-19] | + | 
SEEEEELDQLLLAFIAAAL [Peptide P5-24] | - | 
SAGSEQQEDQLLLMFIMMMLQQ [Peptide P5-53] | - | 
SEEQLDLLLEFIEEELQQEE [Peptide P5-48] | - | 
SAGSEQQLELLLAFIAAALQQ [Peptide P5-4] | + | Effectiveness Covered (%) [2]: 98* %; Effectiveness Uncovered (%) [2]: 97* %
SAGSEQQLDLLLAFIAAELQQ [Peptide P5-68] | - | 
SAGSEQQLDLLLMFEMMMLQQ [Peptide P5-41] | - | 
SAGSEQQEDLLLAFIALQQ [Peptide P5-61] | - | 
SAGSEQQLDLLLMFIMMELQQ [Peptide P5-44] | Weak+ | 
SQAGSEQLDLLLMFIMMMLQQ [Peptide P5-73] | + | 
SEEQLELLLAFIAAALQEE [Peptide P5-88] | + | 
SAGSEQQLDELLAFIAAALQQ [Peptide P5-50] | Weak+ | 
NFGTPDSTVQNPQDASKPNQLDLLLMFIMMMLQQ [Peptide P5-77] | Weak+ | 

Sequence | HR [1] | other results
SEEEQLDQLLLMFIMMMLQEE [Peptide P5-34] | + | 
SAGSEQQLDLLLEFIAAALQQ [Peptide P5-70] | - | 
SEEELDLLLAFIEEELEE [Peptide P5-12] | - | 
SAGSEQQLDQLLLMFIMMMLQQ [Peptide P5a] | + | 
SAGSEQQLDLLLAFIAAALQQ [Peptide P5-3] | + | elicitation of HR, effect of Met to Ala mutations [1]: do not affect the elicitation of HR; Effectiveness Covered (%) [2]: 70* %; Effectiveness Uncovered (%) [2]: 55%
SEEELDQLLLMFIMMMLEE [Peptide P5-30] | + | 
SEEQLDQLLLAFIAAALEE [Peptide P5-28] | Weak+ | 
SAGSEQQLDQELLMFIMMMLQQ [Peptide P5-54] | - | 
SAGSEQQLDLLLAFIAAAL [Peptide P5-6] | - | Effectiveness Covered (%) [2]: 36%; Effectiveness Uncovered (%) [2]: 62%
SEEEQLDLLLMFIMMMLQEE [Peptide P5-33] | + | Dry Weight Increase (%) (soy; 2.0 ug/ml): 5.02** %; Fresh Weight Increase (%) (soy; 2.0 ug/ml): 4.10%
NQGISEKQQLDLLLMFIMMMLQQ [Peptide P5-75] | Strong+ | Dry Weight Increase (%) (soy; 0.2 ug/ml): 3.73%; Fresh Weight Increase (%) (soy; 0.2 ug/ml): 8.78** %; Dry Weight Increase (%) (soy; 2.0 ug/ml): 4.37%; Fresh Weight Increase (%) (soy; 2.0 ug/ml): 8.55** %
SAGSEQQLDLLEMFIMMMLQQ [Peptide P5-38] | - | 
SEEQEEELLAFIAAALQQEE [Peptide P5-58] | - | 
SEEQLDLLLAFIAAALQQEE [Peptide P5-87] | - | 
SEEEEELDLLLAFIAAAL [Peptide P5-7] | - | Effectiveness Covered (%) [2]: 91* %; Effectiveness Uncovered (%) [2]: 71%
SAGSEQQLDELLAFIALQQ [Peptide P5-62] | - | 
SAGSEQQLDLLLMEIMMMLQQ [Peptide P5-40] | Strong+ | 
SAGSEQQLDLLLMFIAAALQQ [Peptide P5-2] | + | elicitation of HR, effect of Met to Ala mutations [1]: do not affect the elicitation of HR; Effectiveness Covered (%) [2]: 90* %; Effectiveness Uncovered (%) [2]: 25%
SAGSEQQLDELLMFIMMMLQQ [Peptide P5-36] | + | 
SAGSEQQLDLLLMFIMEMLQQ [Peptide P5-43] | Strong+ | 
SAGSEQQLDELLAFIAAALQQ [Peptide P5-72] | - | 
SEEEQLDLLLMFIMMMLEE [Peptide P5-31] | + | 
SAGSEQQEDLLLAFIAAALQQ [Peptide P5-49] | - | 
